Where no end group is shown, it is not given here.
Legend:
NF-κB = NF-κB (p65) nuclear translocation in LPS-stimulated RAW 264.7 macrophages, confocal microscopy; format: cell-based; details: RAW 264.7 cells, NIL10, co-incubated with 5 μM STATTIC
Method: (§2) A. Confocal microscopy detection of NF-κB (p65) in RAW 264.7 cells stimulated with 500 μM LPS or in combination with NIL10. Nuclei were stained with DAPI. […] (N=3, results expressed as Mean±SD. *P<0.05 LPS/NIL10 vs LPS/NIL10SC). […] Confocal microscopy detection as in A, in which STATTIC, a pharmacological inhibitor of STAT3 was incubated. Arrows point nuclear or cytoplasmic localization of p65. Lower panels: immunoblot detection of iNOS in cells as in C. (N=3, results expressed as Mean±SD. *P<0.03 LPS vs LPS/NIL10 **P<0.05 LPS/STATTIC vs LPS/NIL10SC/STATTIC. ***P<0.001 NIL10/STATIC vs LPS/NIL10/STATIC).
(§3) The expression of the readout inducible nitric oxide synthase (iNOS) by pro-inflammatory signals was also assayed.

[1] = system: inducible nitric oxide synthase (iNOS); experiment: Immunoblot of iNOS in LPS-stimulated RAW 264.7 macrophages; format: cell-based; details: NIL10 plus STATTIC
Method: as §2, §3

pigs subjected to IR = experiment: Evans Blue/TTC staining of necrotic area in pig hearts after IR; format: in vivo; details: 1 mg/kg, after 7 days of IR, EvansBlue/TTC
Source text: FIG. 6. NIL10 induces cardiac protection in pigs subjected to IR. A. Evans blue/TTC staining (see methods for details) of pig heart sections (from apex to base) after 7 days of IR, showing healthy tissue (blue), the area at risk (red) and the necrotic areas (white). B. Measurement of necrotic areas of the hearts, represented as a percentage respect to the area at risk (Mean±SD. *P<0.001 NIL10 vs NIL10SC, at day 7 post IR). C. Left ventricle ejection fraction of hearts from pigs injected with NIL10 or NIL10SC after 7 days of IR (Mean±SD. *P<0.001 NIL10 vs NIL10SC). D. Hematoxylin and Eosin staining of healthy and necrotic heart sections from pigs injected with NIL10 or NIL10SC after 7 days of IR. E. Masson Trichrome staining of the same hearts as in D. (N=10 pigs/group).
20 male Yorkshire pigs (30±4 kg) were housed 1 week preceding the surgery to avoid unease or stress associated with the new environment. Prior to the surgical intervention, animals were anesthetized with intramuscular ketamine 10 mg/kg and midazolam 0.5 mg/kg.
Anesthesia was induced by inhaled sevoflurane and maintained with continuous infusion of propofol 2 mL/kg/h, fentanyl 50 μg/kg/h, and diazepam 10 μg/kg/h. […]

[2] = system: mouse hearts subjected to IR; experiment: Hematoxylin/Eosin and Masson trichrome staining of mouse heart sections after IR; format: in vivo, mice; details: by day 7 after IR
Source text: FIG. 4. Hematoxylin and Eosin staining of mouse hearts. Heart sections of mice subjected to IR and injected with NIL10 or NIL10SC and collected by days 3 (A) or 7 (B) after IR. N=10 mice/group. From left to right: 2×, 20×, 40×. *P<0.05 D3; **P<0.01D7.
FIG. 5. NIL10 reduce heart fibrosis in response to IR. A. Representative immunoblot of MMP9 from healthy (H) or necrotic (N) areas of mouse hearts after 7 days of IR and injected with NIL10 or NIL10SC. N=10 mice/group. Mean±SD. *P<0.001 NIL10 vs NIL10SC necrotic areas. B. Masson Trichrome staining of heart sections from mice injected with NIL10 or NIL10SC, after 3- or 7-days post IR (N=10 mice/group). *P<0.05 D3; **P<0.03 D7.
(§1) 20 male twelve-week-old wild type, IL10 knock-out and IL10RA knock-out mice C57/BL6 were anesthetized by inhaled 3% sevoflurane and oxygen with a flow rate of 0.4 L/min until loss of righting reflex. Then, endotracheal intubation was perform using an intubation cannula in order to carry out artificial ventilation (tidal volume: 260 μL/stroke, ventilation rate: 130 strokes per minute). The fourth left intercostal space was opened and widened using chest mice retractors. Left ventricle was exposed and LAD was occluded for 30 min close by using a 6-0 silk suture and 1 mm tube. […]
Heart morphology was visualized by Hematoxylin/Eosin staining and collagen deposition was detected by Masson's trichrome staining in mice and pigs.

IL-10R = biological target: T1, IL-10R (Mus musculus, UniProt Q61727); experiment: Confocal microscopy colocalization of nanoparticles with IL-10R in RAW 264.7 macrophages; format: binding; details: RAW 264.7 cells, rhodamine nanoparticle vs FITC anti-IL-10R
T1 construct: endogenous in cells; host or cells: RAW 264.7 macrophages
T1 sequence (Q61727 17-575): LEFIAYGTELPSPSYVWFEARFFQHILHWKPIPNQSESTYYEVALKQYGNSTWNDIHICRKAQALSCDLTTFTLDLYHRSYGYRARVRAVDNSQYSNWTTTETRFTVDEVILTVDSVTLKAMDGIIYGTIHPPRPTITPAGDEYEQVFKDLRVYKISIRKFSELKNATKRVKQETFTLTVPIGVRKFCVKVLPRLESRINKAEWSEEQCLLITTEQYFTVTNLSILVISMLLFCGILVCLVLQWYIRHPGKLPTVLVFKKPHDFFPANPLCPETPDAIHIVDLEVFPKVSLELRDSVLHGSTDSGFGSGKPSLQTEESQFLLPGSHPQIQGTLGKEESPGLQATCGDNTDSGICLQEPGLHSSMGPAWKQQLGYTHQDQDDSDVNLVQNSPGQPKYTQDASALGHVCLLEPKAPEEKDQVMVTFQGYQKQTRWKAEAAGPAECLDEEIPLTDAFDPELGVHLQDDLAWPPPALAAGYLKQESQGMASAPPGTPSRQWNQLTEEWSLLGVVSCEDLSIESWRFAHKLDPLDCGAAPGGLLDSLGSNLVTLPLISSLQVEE
Method: FIG. 1. NIL10 binds to IL-10R in RAW 264.7 cells. A. Nanoparticle composition of NIL10 and NIL10SC. B. Z-potential, longitudinal and transversal relaxivities of NIL10 and NIL10SC nanoparticles. C. Bright field and confocal microscopy sections of RAW 264.7 macrophages, detecting rhodamine (red) containing NIL10 nanoparticles. D,E Colocalization of NIL10 (D) (rhodamine, red) or NIL10SC (E) with IL-10R (FICT, green) in confocal microscopy sections of RAW 264.7 cells incubated with NIL10 and anti-IL-10R specific antibody. Merged panel show co-localization of both signals. Nuclei were stained with Hoechst. Right panel: colocalization analysis with Image J co-localization plugin software, in which white dots correspond to co-localization (N=3).
To study the specificity of nanoparticles, we first incubated NIL10 (FIG. 1A, B) in RAW 264.7 macrophages, detecting rhodamine-containing nanoparticles by confocal microscopy (FIG. 1C).

[3] = system: M2 CD68+/CD206+ macrophages; experiment: Flow cytometry of M2 macrophage populations in mouse hearts after IR; format: in vivo, mice; details: cell extracts from necrotic areas of mouse hearts, 3 and 7 days of IR
Source text: FIG. 7. NIL10 induces M2 macrophage polarization in the hearts of mice subjected to IR. A. Flow cytometry analysis of macrophage populations in mouse hearts after 3 and 7 days of IR. The percentage of M2 CD68+/CD206+ population were selected from the necrotic and at-risk areas of the hearts. B. Gating strategy used to identify macrophage-cell subsets in the health and infarcted mouse heart. A sequential getting strategy was first used to identify M2 population expressing specific macrophage marker CD68, followed by the identification of the population with overlapping expression patterns (CD68/CD206) (N=10 mice/group). Differences between groups were compared using one-way ANOVA. **P<0.01. ***P<0.001. ****P<0.0001.
Whole mouse hearts were mashed in complete DMEM (10% FBS, penicillin/streptomycin) through a 100-μm cell strainer. ACK Lysing Buffer was added to the single-cell suspension and spun down at 350 g for 5 minutes. The ACK was washed out with 50 mL of washing buffer (1% FBS), and cells were incubated with 1:100 anti-EMMPRIN, anti-CD68 and anti-CD206 antibodies. All flow cytometry samples were assayed in a MACSQuant Analyzer Flow Cytometer and analyzed with the Graphpad Prism software package.

mice subjected to IR = experiment: LVEF by echocardiography in wild type mice subjected to IR; format: in vivo; details: 1 mg/kg 24 hours after IR, value NIL10 is compared against, day not given
Source text: FIG. 3. NIL10 induces cardiac protection in mice subjected to IR. A. Outline of the proceedings performed. B. Representative electrocardiogram, showing ST-elevation after LAD occlusion. C. Left ventricle ejection fraction (LVEF) of wild type mouse hearts at the times indicated after IR and injected with NIL10 or NIL10SC as in A. N=10 mice/group. Results expressed as mean±SD. *P<0.03 NIL10 vs NIL10SC day 7. #P<0.05 NIL10 vs NIL10SC day 3. D. LVEF in IL-10 knockout mice. N=10 mice/group. Results expressed as mean±SD. *P<0.01 NIL10 vs NIL10SC day 7. #P<0.05 NIL10 vs NIL10SC day 3. E. LVEF in IL-10 receptor knockout mice. N=10 mice/group. Results expressed as mean±SD.
as §1, with “tube. Reperfusion was performed by ligation release. After the procedure, the chest was closed, negative pressure restored, and the skin sutured.” for “tube.”

Compound	NIL10-induced cytoplasmic localization of NF-κB (NF-κB)	NIL10 inhibition of iNOS expression in the presence of STATTIC [1]	necrotic area (pigs subjected to IR)	extension of fibrosis (Masson Trichrome) [2]	Colocalization with the IL-10R (IL-10R)	presence of M2-resolving macrophages [3]	LVEF (comparator value) (mice subjected to IR)
O=[N+]([O-])c1ccc2c(c1)S(=O)(=O)C=C2 [STATTIC]	prevented	reversed	–	–	–	–	–
NIL10SC: nanoparticle conjugated with the same peptide in a scrambled orientation (CANYRMITKM); control, does not bind IL10R (also: conjugated to nanoparticle (site not given here))	–	–	55±7.34 percentage respect to the area	fibrotic lesions were widespread	no binding	takes 7 days to detect a similar effect	41.5%±4.33
